The values that follow come from ChEMBL document CHEMBL1201862, “PubChem BioAssay data set” (2004).

Activity calls are given as the source filed them. Rule as the data show it, for most assays here: actives have a measured EC50 and inactives only a lower limit.

Assay [1] relates to Streptococcus sp. 'group A'. The assay is described as follows: Streptococcus pyogenes SK(-)GAS viability under kanamycin – luminescence, BacTiterGlo, confirmation, counter-screen for streptokinase expression inhibitor project, dose response (AID 1900). The format is functional, organism-based. Background: A counterscreen serves to expose hits that act by an unwanted route or on another target.

A further assay concerns the target T1, Streptokinase A (Streptococcus pyogenes serotype M1, UniProt P10520).
T1 sequence (P10520 whole entry): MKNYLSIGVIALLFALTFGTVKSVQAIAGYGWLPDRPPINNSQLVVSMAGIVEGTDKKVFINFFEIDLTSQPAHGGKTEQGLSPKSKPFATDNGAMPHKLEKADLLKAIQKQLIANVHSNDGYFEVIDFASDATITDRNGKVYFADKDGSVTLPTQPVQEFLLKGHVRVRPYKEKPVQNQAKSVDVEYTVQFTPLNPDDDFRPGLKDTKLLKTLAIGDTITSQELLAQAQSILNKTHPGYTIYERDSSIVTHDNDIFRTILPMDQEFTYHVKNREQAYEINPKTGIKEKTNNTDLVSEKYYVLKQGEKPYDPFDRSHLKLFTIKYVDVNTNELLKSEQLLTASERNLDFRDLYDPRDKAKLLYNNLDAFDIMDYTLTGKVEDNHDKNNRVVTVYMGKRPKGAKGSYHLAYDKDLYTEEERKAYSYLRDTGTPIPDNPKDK
The assay is described as follows: viability-normalized secreted streptokinase activity reduction – plasminogen activation absorbance, OD405, dose response (AID 1914).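 Also: secreted streptokinase activity via plasminogen activation per viability signal from cell pellet.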 Format: functional, Streptococcus pyogenes M1 GAS.

In the next assay the test system is Streptococcus. The assay can be described thus: GAS UMAA2166 growth inhibition – luminescence, BacTiterGlo, counter-screen for streptokinase expression inhibitor project, dose response (AID 1915).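 Also: potency for reduction of bacterial viability or growth.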 The format is functional, organism-based.
Assay [2] in a line: Trypanosoma cruzi growth suppression in host cells – NIH3T3 host cells, beta-gal luminescence, confirmation (AID 2044).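 Also: intracellular parasites grown in NIH/3T3 mouse fibroblasts as host cells; luminescent beta-galactosidase reporter signal from transgenic T. cruzi replicating inside host cells; inhibitors lower the luminescence signal.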 The format is functional, cell-based.
Assay [3] can be described thus: NIH3T3 cell viability loss – ATP luminescence, mouse fibroblasts, counter-screen, dose response (AID 2010).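 Also: cells exposed to compound for about 90 hours before reading.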 Format: functional, cell-based.
The nature of assay [4]: Luminescence Cell-Based Dose Retest to Confirm Inhibitors of Cancer Stem Cells. [Related pubchem assays (depositor defined):AID2717, AID2721]. The format is functional. The following applies: Homo sapiens.
The target in assay [5] is T2, Heat shock factor protein 1 (Mus musculus, UniProt P38532).
T2 sequence (P38532 whole entry): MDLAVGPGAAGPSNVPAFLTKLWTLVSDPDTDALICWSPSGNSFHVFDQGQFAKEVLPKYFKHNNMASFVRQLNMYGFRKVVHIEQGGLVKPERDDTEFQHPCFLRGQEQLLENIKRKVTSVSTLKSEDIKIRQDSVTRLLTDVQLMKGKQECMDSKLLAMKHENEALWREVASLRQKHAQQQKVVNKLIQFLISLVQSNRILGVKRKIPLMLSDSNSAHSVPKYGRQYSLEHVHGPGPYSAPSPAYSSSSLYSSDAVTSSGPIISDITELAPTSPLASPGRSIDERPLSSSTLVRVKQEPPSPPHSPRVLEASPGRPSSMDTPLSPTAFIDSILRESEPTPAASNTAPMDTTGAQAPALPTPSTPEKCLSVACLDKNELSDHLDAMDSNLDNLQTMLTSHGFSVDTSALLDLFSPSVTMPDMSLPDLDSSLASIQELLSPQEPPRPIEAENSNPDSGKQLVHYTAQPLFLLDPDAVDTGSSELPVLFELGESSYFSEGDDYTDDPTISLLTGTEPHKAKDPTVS
The assay is described as follows: decrease of HSF1-responsive luciferase luminescence – cell-based, NIH3T3, dose retest, confirmation (AID 2382).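 Also: NIH3T3 fibroblasts with HSF1-driven luciferase reporter stressed by proteasome inhibitor MG132; luminescence from HSF1-driven luciferase expression after 8 hours of MG132 stress.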 Format: functional.

Assay [6] in a line: viability of uninfected HEp-2 cells – cell-based, HTS, cytotoxicity control for RSV inhibitor project, dose response (AID 2410). The format is functional. The following applies: human respiratory syncytial virus.
Another assay deals with T3, Cytochrome P450 1A2 (Homo sapiens, UniProt P05177).
T3 sequence (P05177 whole entry): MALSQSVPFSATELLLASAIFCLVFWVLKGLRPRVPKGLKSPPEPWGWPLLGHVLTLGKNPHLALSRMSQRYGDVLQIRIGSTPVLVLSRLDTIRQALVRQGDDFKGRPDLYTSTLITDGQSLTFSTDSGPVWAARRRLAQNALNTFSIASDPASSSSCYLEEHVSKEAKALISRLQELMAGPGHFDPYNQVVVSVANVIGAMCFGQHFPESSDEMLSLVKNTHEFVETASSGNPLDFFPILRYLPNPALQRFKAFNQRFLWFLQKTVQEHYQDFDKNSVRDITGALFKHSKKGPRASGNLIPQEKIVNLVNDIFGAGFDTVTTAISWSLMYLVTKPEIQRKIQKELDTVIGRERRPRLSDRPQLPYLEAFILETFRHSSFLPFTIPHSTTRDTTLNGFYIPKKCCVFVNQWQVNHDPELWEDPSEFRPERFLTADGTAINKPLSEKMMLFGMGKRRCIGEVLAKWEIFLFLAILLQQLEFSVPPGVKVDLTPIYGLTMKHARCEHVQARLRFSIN

As to `Cc1ccc(Oc2ccc3c(c2)C(=O)N(c2cccc4cccnc24)C3=O)cc1`, the EC50 in assay [1] was 25.6 µM (active); at Streptokinase A it was 25.3 µM (active); in the assay with Streptococcus it was > 150 µM (not active).
In the case of `O=C(Nc1ccc(C(=O)NCc2ccc(F)cc2)cc1)C1=CSCCO1`, the EC50 (in [1]; on Streptokinase A; in the assay on Streptococcus) was > 150 µM (not active) in each case.
Regarding `Cc1cc(C)c(OCC(=O)N2CCN(c3ncc(C(F)(F)F)cc3Cl)CC2)c(C)c1`, the EC50 was 12.8 µM (active) in [1], 7.69 µM (active) at Streptokinase A and 23.8 µM (active) with Streptococcus.
In the same order, the values of `CC(C)(C)NC(=O)C1CC2CCCCC2CN1` (stereo not given) are > 150 µM (not active), > 150 µM (not active) and > 150 µM (not active).
For the compound `CCN(CC)CCSc1nnc2c3ccccc3n(Cc3ccccc3)c2n1`, the EC50 in assay [2] is 0.284 µM (active); in assay [3], > 60 µM (not active). In assay [4], the AC50 is 0.829 µM (active).
As for `Nc1nc(CSC(=S)N2CCCCC2)nc(Nc2ccccc2)n1`, the EC50 in [5] is given as > 195 µM (not active).
For the compound `O=C(Nc1nc2ccccc2n1CCOc1ccccc1)c1ccco1`, the EC50 is 4.16 µM (active) in assay [1], > 150 µM (not active) on Streptokinase A and 9.64 µM (active) with Streptococcus.
For `N#Cc1ccc(C(=O)Nc2nc(SCc3ccc(Cl)cc3)n[nH]2)cc1`, the results for the EC50 (in [1]; at Streptokinase A; in the assay on Streptococcus) were 1.97 µM (active), > 150 µM (not active) and > 150 µM (not active), respectively.
Regarding `O=C(CN1CCCC1)Nc1c2c(cc3c1CCC3)CCC2`, in assay [5], the EC50 is given as > 195 µM (not active).
On to `CC1(C)Cc2ccccc2-c2nnc(S)n21`, for which, in [6], the CC50 is 31.5 µM (active).
On to `O=[N+]([O-])c1cc(C(F)(F)F)ccc1NCCc1c[nH]c2ccccc12`, for which the AC50 in assay [4] is 4.48 µM (active).
Take `COc1ccccc1NC(=O)CSc1nc2nnc(C)c-2c(N)n1-c1ccccc1Cl`: in assay [6], the CC50 is 16.8 µM (active).
`CCS(=O)(=O)N1Cc2ccccc2CC1C(=O)Nc1nnc(SCc2ccc(C#N)cc2)s1` (stereo not given): the EC50 in assay [1] is 16.1 µM (active); on Streptokinase A, > 150 µM (not active); with Streptococcus it was 94.3 µM (active).
`CCOC(=O)c1[nH]c2ccc(OC)cc2c1C(SCC(=O)O)c1ccc(C(F)(F)F)cc1` (stereo not given): in [6], the CC50 is 21.1 µM (active).
`COc1cccc(-c2cc3nc4c(c(N5CCC6(CC5)OCCO6)n3n2)CCCC4)c1`: in assay [4], the AC50 was 4.89 µM (active).
Turning to `CC(C)Nc1nc(Oc2cccc(Cl)c2Cl)cc(C(F)(F)F)n1`, the EC50 is 6.13 µM (active) in [1], > 150 µM (not active) at Streptokinase A and 8.83 µM (active) in the assay with Streptococcus.
For `O=C(NCC1(N2CCCCC2)CCCCC1)c1cccc(NS(=O)(=O)c2ccccc2)c1`, the EC50 (in [1]; at Streptokinase A; in the assay on Streptococcus) was > 150 µM (not active) throughout.
Regarding `CCN1C(=O)C(CC(=O)Nc2ccc(OC)cc2)N(CCCN2CCN(c3ccc(F)cc3)CC2)C1=S` (stereo not given), the AC50 in assay [4] was 5.53 µM (active).
With `CC1CCCCN1c1nc(-c2ccncc2)nc2ccccc12` (stereo not given), in assay [6], the half-maximal cytotoxic concentration (CC50) was 44.4 µM (active). Also, the EC50 was 0.576 µM (active) in assay [2] and > 30 µM (not active) in assay [3].
For the compound `N#Cc1cn(CCOc2ccc(F)cc2)c2ccccc12`, the CC50 in [6] was 14.1 µM (active).
On the same count and under the same terms, the figure for `Cc1ccc(N2CCN(C(=O)C3CCCN(c4ncnc5c4nc4n5CCCCC4)C3)CC2)c(C)c1` (stereo not given) is 9.35 µM (active).
Turning to `Nc1ccc(S(=O)(=O)N2CCC(Cc3ccccc3)CC2)cc1`, the half-maximal effective concentration (EC50) in [5] is recorded as > 195 µM (not active).
In the case of `COc1cccc(N=Nc2c(N)nn3c(O)cc(-c4ccccc4)nc23)c1`, the EC50 in assay [1] was 2.27 µM (active); on Streptokinase A, > 150 µM (not active); with Streptococcus it was 31.3 µM (active).
As to `CC1CCN(CC(=O)c2cccs2)CC1`, in assay [5], the concentration for a half-maximal effect (EC50) is listed as > 195 µM (not active).
As to `O=C(Nc1ccccc1)c1ccc2c(c1)CCN2S(=O)(=O)c1ccccc1`, in [6], the CC50 is 16 µM (active).
Take `Cc1c(C(=O)N2CCc3ccccc3C2)sc2nc(-c3ccccc3)cn12`: the CC50 in assay [6] is 30.3 µM (active).
`COc1ccc(-c2ccc(-c3noc(-c4ccccc4)n3)c(OC)n2)cc1`: in assay [6], the CC50 is 36.4 µM (active).
In the case of `CC(NNc1ccccc1)=C1C(=O)N(C)C(=O)N(C)C1=O`, the AC50 in [4] was 1.81 µM (active).
As for `O=C(NNc1ccccc1)C(=O)N1CCCCC1`, in [4], the AC50 is 1.03 µM (active).
As to `O=S(=O)(NCCSCc1c(Cl)cccc1Cl)c1ccc2c(c1)OCCO2`, the EC50 in assay [1] was 11.6 µM (active); at Streptokinase A, > 150 µM (not active); in the assay on Streptococcus, 24.5 µM (active).
Turning to `CCn1c2ccccc2c2cc(NC(=O)c3ccc(Br)o3)ccc21`, in assay [6], the half-maximal cytotoxic concentration (CC50) is 27.8 µM (active).
With `Cc1ccc(NC(=S)Nc2cccc3ccccc23)cc1`, the EC50 in [5] is recorded as > 195 µM (not active).
Still for that read-out and setting: the figure for `CCOC(=O)Cn1c(=O)oc2cc(S(=O)(=O)NCCC(C)C)ccc21` is > 195 µM (not active).
As to `CCN(c1ccc(NC(=O)CCc2nc(O)c3c4c(sc3n2)CCCC4)cc1)C(C)C`, the AC50 in assay [4] is 4.71 µM (active).
Take `CCCC/C(C)=C/[C@@H](NP(=O)(c1ccccc1)c1ccccc1)c1ccccc1`: the AC50 in assay [4] was 6.1 µM (active).
`COc1ccccc1-c1cc(=O)c2c(O)ccc([N+](=O)[O-])c2o1`: the values for the EC50 (in [1]; at Streptokinase A; in the assay with Streptococcus) were 1.4 µM (active), > 150 µM (not active) and 10.4 µM (active), respectively.
Take `CC(C)Cc1nnc(NC(=O)CCC(=O)N2CCN(c3ccccc3)CC2)s1`: the EC50 (in assay [1]; on Streptokinase A; in the assay on Streptococcus) was > 150 µM (not active) in each case.
Take `CCCCCCSc1cccc(-c2nc3cc(C)ccn3c2NC2CCCCC2)c1`: the AC50 in [4] is 4.23 µM (active).
Consider `O=C(N/N=C/c1nn(-c2ccccc2)cc1-c1ccc(Cl)cc1)c1ccncc1`, for which the CC50 in assay [6] was 10.1 µM (active).
Turning to `O=c1c(/C=N\NS(=O)(=O)c2ccccc2)coc2ccc(Cl)cc12`, in assay [5], the half-maximal effective concentration (EC50) was 44.5 µM (active).
For `CCOC(=O)c1cc2c(=O)n3ccccc3nc2n(CCOC)/c1=N/C(=O)c1c(-c2c(F)cccc2Cl)noc1C`, the CC50 in [6] was 5.3 µM (active).
`COc1cc(/C=N/NC(=O)c2nnn(-c3nonc3N)c2C(C)C)ccc1OCc1ccccc1`: in [6], the CC50 was 14 µM (active).
As to `COc1cc(/C=N/N2CCN(Cc3ccccc3)CC2)cc(OC)c1OC(C)=O`, the EC50 in assay [5] is reported as > 195 µM (not active).
Consider `COc1ccc(S(=O)(=O)N/N=C(/C)c2ccncc2)cc1`, for which the EC50 (in [1]; at Streptokinase A; with Streptococcus) was > 150 µM (not active) in each case.
For the compound `CCCCC/C=C\C/C=C\C/C=C\C/C=C\CCCC(=O)Nc1ccc(O)cc1`, the figures for the EC50 (in assay [1]; at Streptokinase A; with Streptococcus) were 0.827 µM (active), > 150 µM (inconclusive) and 3.32 µM (active), respectively. Besides, the AC50 at Cytochrome P450 1A2 was 20 µM (inconclusive).

As usually defined, the EC50 is the concentration at which the effect is half-maximal. For orientation: AC50 means the concentration giving half of the maximal activity seen. For orientation: CC50 means the concentration that lowers cell viability or growth by half.
